Data reported in ChEMBL document CHEMBL3046848, “Synthesis and biological evaluation of novel series of thieno[2,3-d]pyrimidine derivatives as anticancer and antimicrobial agents” (2013).

Assays:
Assay type in all cases: functional
SK-MEL-5 = assay: Anticancer activity against Homo sapiens (human) SK-MEL-5 cells after 48 hr by SRB assay; conditions: SK-MEL-5, 48 h
M14 = assay: Anticancer activity against Homo sapiens (human) M14 cells after 48 hr by SRB assay; conditions: M14, 48 h
Malme-3M = assay: Anticancer activity against Homo sapiens (human) MALME-3M cells after 48 hr by SRB assay
SNB-75 [1] = assay: Anticancer activity against Homo sapiens (human) SNB75 cells after 48 hr by SRB assay; conditions: SNB-75, 48 h
SF-295 = assay: Anticancer activity against Homo sapiens (human) SF295 cells after 48 hr by SRB assay; conditions: SF-295, 48 h
CAKI-1 = assay: Growth inhibition of Homo sapiens (human) CAKI-1 cells at 10 uM after 48 hr by SRB assay; conditions: CAKI-1, 48 h, read-out: GI
786-0 = assay: Growth inhibition of Homo sapiens (human) 786-0 cells at 10 uM after 48 hr by SRB assay; conditions: 786-0, 48 h, read-out: GI
RPMI-8226 = assay: Growth inhibition of Homo sapiens (human) RPMI8226 cells at 10 uM after 48 hr by SRB assay; conditions: RPMI-8226, 48 h, read-out: GI
K562 = assay: Growth inhibition of Homo sapiens (human) K562 cells at 10 uM after 48 hr by SRB assay; conditions: K562, 48 h, read-out: GI
CCRF-CEM [2] = assay: Growth inhibition of Homo sapiens (human) CCRF-CEM cells at 10 uM after 48 hr by SRB assay; conditions: read-out: GI
OVCAR-5 [3] = assay: Growth inhibition of Homo sapiens (human) OVCAR5 cells at 10 uM after 48 hr by SRB assay; conditions: OVCAR-5, 48 h, read-out: GI
MDA-MB-231 = assay: Growth inhibition of Homo sapiens (human) MDA-MB-231/ATCC cells at 10 uM after 48 hr by SRB assay; conditions: MDA-MB-231, 48 h, read-out: GI
SW-620 = assay: Growth inhibition of Homo sapiens (human) SW620 cells at 10 uM after 48 hr by SRB assay; conditions: SW-620, 48 h, read-out: GI
MDA-MB-468 = assay: Anticancer activity against Homo sapiens (human) MDA-MB-468 cells after 48 hr by SRB assay; conditions: MDA-MB-468, 48 h
Hs-578T = assay: Anticancer activity against Homo sapiens (human) Hs 578T cells after 48 hr by SRB assay
NCI/ADR-RES = assay: Anticancer activity against Homo sapiens (human) NCI/ADR-RES cells after 48 hr by SRB assay
UO-31 [4] = assay: Anticancer activity against Homo sapiens (human) UO31 cells after 48 hr by SRB assay; conditions: UO-31, 48 h
TK-10 = assay: Anticancer activity against Homo sapiens (human) TK10 cells after 48 hr by SRB assay; conditions: TK-10, 48 h
HCT-15 = assay: Growth inhibition of Homo sapiens (human) HCT15 cells at 10 uM after 48 hr by SRB assay; conditions: HCT-15, 48 h, read-out: GI
NCI-H460 [5] = assay: Growth inhibition of Homo sapiens (human) NCI-H460 cells at 10 uM after 48 hr by SRB assay; conditions: NCI-H460, 48 h, read-out: GI
NCI-H23 = assay: Growth inhibition of Homo sapiens (human) NCI-H23 cells at 10 uM after 48 hr by SRB assay; conditions: NCI-H23, 48 h, read-out: GI
HOP-92 [6] = assay: Growth inhibition of Homo sapiens (human) HOP92 cells at 10 uM after 48 hr by SRB assay; conditions: HOP-92, 48 h, read-out: GI
EKVX = assay: Growth inhibition of Homo sapiens (human) EKVX cells at 10 uM after 48 hr by SRB assay; conditions: read-out: GI
HCT-116 = assay: Anticancer activity against Homo sapiens (human) HCT116 cells after 48 hr by SRB assay; conditions: HCT-116, 48 h
NCI-H460 [7] = assay: Anticancer activity against Homo sapiens (human) NCI-H460 cells after 48 hr by SRB assay; conditions: NCI-H460, 48 h
NCI-H522 = assay: Anticancer activity against Homo sapiens (human) NCI-H522 cells after 48 hr by SRB assay; conditions: NCI-H522, 48 h
HOP-92 [8] = assay: Anticancer activity against Homo sapiens (human) HOP92 cells after 48 hr by SRB assay; conditions: HOP-92, 48 h
A549 = assay: Anticancer activity against Homo sapiens (human) A549/ATCC cells after 48 hr by SRB assay; conditions: A549, 48 h
CCRF-CEM [9] = assay: Anticancer activity against Homo sapiens (human) CCRF-CEM cells after 48 hr by SRB assay
SNB-75 [10] = assay: Growth inhibition of Homo sapiens (human) SNB75 cells at 10 uM after 48 hr by SRB assay; conditions: SNB-75, 48 h, read-out: GI
OVCAR-5 [11] = assay: Anticancer activity against Homo sapiens (human) OVCAR5 cells after 48 hr by SRB assay; conditions: OVCAR-5, 48 h
PC-3 = assay: Growth inhibition of Homo sapiens (human) PC3 cells at 10 uM after 48 hr by SRB assay; conditions: PC-3, 48 h, read-out: GI
DU-145 = assay: Growth inhibition of Homo sapiens (human) DU145 cells at 10 uM after 48 hr by SRB assay; conditions: DU-145, 48 h, read-out: GI
UO-31 [12] = assay: Growth inhibition of Homo sapiens (human) UO31 cells at 10 uM after 48 hr by SRB assay; conditions: UO-31, 48 h, read-out: GI
[13] = read-out: LC50 (the source's name)

Cc1c(C(N)=O)sc2nc(C)n(/N=c3\scc(-c4ccccc4)n3Cc3ccccc3)c(=O)c12
GI50 (SK-MEL-5): 1.81 µM
TGI (SK-MEL-5): 3.75 µM
CC50 (SK-MEL-5; [13]): 7.75 µM
GI50 (M14): 3.88 µM
TGI (M14): 84.5 µM
CC50 (M14; [13]): > 100 µM
GI50 (Malme-3M): 2.18 µM
TGI (Malme-3M): > 100 µM
CC50 (Malme-3M; [13]): > 100 µM
GI50 (SNB-75 [1]): 2.8 µM
TGI (SNB-75 [1]): > 100 µM
CC50 (SNB-75 [1]; [13]): > 100 µM
GI50 (SF-295): 2.93 µM
TGI (SF-295): > 100 µM
CC50 (SF-295; [13]): > 100 µM
inhibition of growth at 10 µM (CAKI-1): 141%
inhibition of growth at 10 µM (786-0): 49.3%
inhibition of growth at 10 µM (RPMI-8226): 110%
inhibition of growth at 10 µM (K562): 91.6%
inhibition of growth at 10 µM (CCRF-CEM [2]): 112%
inhibition of growth at 10 µM (OVCAR-5 [3]): 52.1%
inhibition of growth at 10 µM (MDA-MB-231): 57%
inhibition of growth at 10 µM (SW-620): 87.5%
GI50 (MDA-MB-468): 2.65 µM
TGI (MDA-MB-468): > 100 µM
CC50 (MDA-MB-468; [13]): > 100 µM
GI50 (Hs-578T): 3.85 µM
TGI (Hs-578T): > 100 µM
CC50 (Hs-578T; [13]): > 100 µM
GI50 (NCI/ADR-RES): 2.9 µM
TGI (NCI/ADR-RES): 29.2 µM
CC50 (NCI/ADR-RES; [13]): > 100 µM
GI50 (UO-31 [4]): 1.66 µM
TGI (UO-31 [4]): 7 µM
CC50 (UO-31 [4]; [13]): > 100 µM
GI50 (TK-10): 3.78 µM
TGI (TK-10): > 100 µM
CC50 (TK-10; [13]): > 100 µM
inhibition of growth at 10 µM (HCT-15): 85.1%
inhibition of growth at 10 µM (NCI-H460 [5]): 92.5%
inhibition of growth at 10 µM (NCI-H23): 79.5%
inhibition of growth at 10 µM (HOP-92 [6]): 119%
inhibition of growth at 10 µM (EKVX): 107%
GI50 (HCT-116): 2.13 µM
TGI (HCT-116): 10 µM
CC50 (HCT-116; [13]): > 100 µM
GI50 (NCI-H460 [7]): 2.65 µM
TGI (NCI-H460 [7]): 7.34 µM
CC50 (NCI-H460 [7]; [13]): > 100 µM
GI50 (NCI-H522): 1.73 µM
TGI (NCI-H522): 7.23 µM
CC50 (NCI-H522; [13]): > 100 µM
GI50 (HOP-92 [8]): 1.34 µM
TGI (HOP-92 [8]): 5.33 µM
CC50 (HOP-92 [8]; [13]): > 100 µM
GI50 (A549): 3.79 µM
TGI (A549): > 100 µM
CC50 (A549; [13]): > 100 µM
GI50 (CCRF-CEM [9]): 34.2 µM
TGI (CCRF-CEM [9]): > 100 µM
CC50 (CCRF-CEM [9]; [13]): > 100 µM
inhibition of growth at 10 µM (SNB-75 [10]): 45.2%
GI50 (OVCAR-5 [11]): 4.33 µM
TGI (OVCAR-5 [11]): > 100 µM
CC50 (OVCAR-5 [11]; [13]): > 100 µM
inhibition of growth at 10 µM (PC-3): 98%
inhibition of growth at 10 µM (DU-145): 57.9%
inhibition of growth at 10 µM (UO-31 [12]): 95.9%
